The values below come from patent publication US20220296594A1, “POTENTIATORS OF ANTIMICROBIAL AND/OR ANTIVIRAL AGENTS” (MASSACHUSETTS INSTITUTE OF TECHNOLOGY, priority 2019, published 2022).

Entries after “also recorded” stand apart in the source; their conditions may differ.

Experiment [1] deals with E. coli cells. The following applies: E. coli cells treated with the antibiotic; cited from earlier work.
Experiment [2] has as its system Escherichia coli strain K-12 MG1655. Description: Time-kill experiments (antibiotic lethality with biochemical supplementation). The following applies: for antibiotic lethality: supplementation in wildtype cells, tested antibiotics AMP, CIP and GENT; for ciprofloxacin (CIP) lethality / gentamicin (GENT) lethality / ampicillin (AMP) lethality: time-kill, with vs without the added substance; for ciprofloxacin (CIP) lethality: 16 ng/mL CIP; for gentamicin (GENT) lethality: 48 ng/mL GENT (minimal medium); for ampicillin (AMP) lethality: 4 μg/mL AMP.

The subject of experiment [3] is E. coli cells. Description: Intracellular metabolite quantification by LC-MS/MS after adenine or uracil supplementation. The class given is cell-based, Escherichia coli. The procedure: Intracellular metabolites were quantified on an AB SCIEX Qtrap® 5500 mass spectrometer (AB SCIEX; Framingham, Mass.), as previously described (McCloskey et al., 2018), and processed using in house scripts. […] Samples were collected 1 hr after supplementation, and aliquots with biomass equivalents to 10 mL of cell culture at OD600=0.1 were subjected to metabolite extraction using a 40:40:20 mixture of acetonitrile, methanol and LC-MS grade water. Uniformly labeled ^13C-standards were generated by growing E. coli in uniformly labeled Glucose M9 minimal media in aerated shake flasks, as previously described (McCloskey et al., 2014). Calibration mixes of standards were split across several mixes, aliquoted, and lyophilized to dryness. All samples and calibrators were equally spiked with the same internal standards. Samples were quantified using […] mass spectrometry. Calibration curves were run before and after all biological and analytical replicates. Consistency of quantification between calibration curves was checked by running a Quality Control sample composed of all biological replicates. Values reported are derived from the average of the biological triplicates, analyzed in duplicate (n=6).
Metabolite concentrations were estimated from LC-MS/MS peak heights using previously generated calibration curves. […] Metabolites in blanks with a concentration greater than 80% of that found in the biological samples were similarly excluded. Missing values were imputed by bootstrapping using the R package Amelia II (v. 1.7.4, 1,000 imputations) (Honaker et al., 2011). Remaining missing values were approximated as ½ the lower limit of quantification for the metabolite normalized to the biomass of the sample. Intracellular metabolite concentrations were calculated based on an estimated cell density of 7·10^7 CFU/mL at OD600=0.1 (FIGS. 5A-5C) and an estimated cell volume of 1.3 fL for non-stressed exponential phase E. coli cells (Milo and Phillips, 2016).

A further experiment deals with E. coli. Description: Unstressed growth in MOPS minimal medium. The following applies: exogenous supplementation, no antibiotic.
For experiment [4], the system named is E. coli cells. As to the kind of experiment: Oxygen consumption rate quantification (Seahorse XFe96 Extracellular Flux Analyzer). The class given is cell-based, Escherichia coli. The following applies: for cellular OCR under antibiotic treatment: 1 mM adenine or uracil supplementation, AMP, CIP or GENT treatment; for cellular oxygen consumption rate (OCR) following antibiotic treatment: antibiotic alone, in contrast to control conditions.

[5] abbreviates: 1 mM supplementation, 1 hr, MOPS minimal medium.

Regarding `CCn1cc(C(=O)O)c(=O)c2cc(F)c(N3CCNCC3)cc21` [norfloxacin], in the experiment on E. coli cells [1], the “intracellular purine nucleic acid bases (adenine, guanine)” value was “depleted” and the “intracellular pyrimidine nucleic acid bases (cytosine, thymine, uracil)” value is “accumulate”.
With `O=c1ccn([C@@H]2O[C@H](CO)[C@@H](O)[C@H]2O)c(=O)[nH]1` [uridine], the antibiotic lethality result in experiment [2] is “potentiating effect”.
`Nc1cc[nH]c(=O)n1` [cytosine]: the antibiotic lethality result in experiment [2] is reported as “potentiated; also recorded: potentiating effect”.
As to `Nc1ncnc2nc[nH]c12` [adenine], in the experiment on E. coli cells [3] (setting [5]), the “NADH/NAD+ ratio” value was “unchanged”, the “NADPH/NADP+ ratio” value is given as “modest decrease”, the adenylate energy charge result was “modest decrease” and the intracellular fumarate entry is given as “decreased”. Moreover, in the experiment with E. coli cells [3] (setting [5]), the intracellular succinate result is on record as “increased”. Besides, the intracellular adenine nucleotides entry in the experiment with E. coli cells [3] (exogenous adenine addition) is “accumulate”. Also, the unstressed growth entry in the experiment on E. coli is “does not significantly alter”. For the same compound, in the experiment on E. coli cells [4], the “cellular OCR under antibiotic treatment” value is “significantly repressed”. In experiment [2], the antibiotic lethality result was “decreased”, the “ciprofloxacin (CIP) lethality” value is listed as “decreases”, the “gentamicin (GENT) lethality” value is “decreases” and the “ampicillin (AMP) lethality” value is reported as “decreases”.
For the compound `O=c1cc[nH]c(=O)[nH]1` [uracil], in the experiment on E. coli, the unstressed growth entry is “does not significantly alter”. Also, in the experiment with E. coli cells [4], the “cellular OCR under antibiotic treatment” value is “enhanced”. Further, in experiment [2], the antibiotic lethality entry was “potentiated; also recorded: potentiating effect”, the “ciprofloxacin (CIP) lethality” value was “increases”, the “gentamicin (GENT) lethality” value was “increases” and the “ampicillin (AMP) lethality” value was “increases”.
In the case of `Sc1ncnc2nc[nH]c12` [6-mercaptopurine], in experiment [2], the “ciprofloxacin (CIP) lethality” value is reported as “decreased”, the “gentamicin (GENT) lethality” value is given as “increased” and the “ampicillin (AMP) lethality” value is recorded as “decreased”.
Turning to `O=C(O)c1cn(C2CC2)c2cc(N3CCNCC3)c(F)cc2c1=O` [CIP, ciprofloxacin], the “cellular oxygen consumption rate (OCR) following antibiotic treatment” value in the experiment on E. coli cells [4] is on record as “increased”.
Still for that read-out and setting: for `CNC(C)C1CCC(N)C(OC2C(N)CC(N)C(OC3OCC(C)(O)C(NC)C3O)C2O)O1` (stereo not drawn) [GENT, gentamicin] the value was “increased”.
As to `CC1(C)S[C@@H]2[C@H](NC(=O)[C@H](N)c3ccccc3)C(=O)N2[C@H]1C(=O)O` [AMP, ampicillin], in the experiment on E. coli cells [1], the “intracellular purine nucleic acid bases (adenine, guanine)” value is listed as “depleted” and the “intracellular pyrimidine nucleic acid bases (cytosine, thymine, uracil)” value is recorded as “accumulate”. The “cellular oxygen consumption rate (OCR) following antibiotic treatment” value in the experiment with E. coli cells [4] is given as “increased”.
On to `COc1cc(Cc2cnc(N)nc2N)cc(OC)c1OC` [trimethoprim], for which, in experiment [2], the “ciprofloxacin (CIP) lethality” value is on record as “decreases”, the “gentamicin (GENT) lethality” value is given as “increases” and the “ampicillin (AMP) lethality” value was “decreases”.
